Measured values from patent US20260256799A1, “INHIBITORS FOR TREATING SOLID TUMOURS” (UNIVERSITY OF SOUTHAMPTON, priority 2023, published 2026).

Assays:
[1] = system: HFFF2; assay: Senescence assay (SA-β-Gal); format: cell-based, human; settings: continuous TGF-β1 administration, at 12 days
Protocol: (§1) HFFF2s were plated in 24-well plates (1×10^3 or 5×10^3 cells/well) and treated with TGF-β1 the following day (and then every 3 days). Senescence was quantified at day 5 and 12 from TGF-β1 treatment determining the percentage of SA-β-Gal-positive cells (Sigma) of the total number of cells counterstained with Dapi (Sigma) as previously described. At least 200 cells/well in at least three independent experiments were counted per sample using a CKX41 Olympus fluorescent microscope. Cells were less than 50% confluent at the end of the experiment to avoid SA-β-Gal-false positive cells due to cell contact. ROS assay was performed as previously.

[2] = system: HFFF2 fibroblasts; assay: TGF-β1-induced myofibroblast differentiation of fibroblasts (Western blotting, immunofluorescence, Q-RT-PCR, collagen gel contraction); format: cell-based, human
Protocol: (§2) Human NSCLC cell line H441, HNSCC SCC25, murine cancer cell line TC-1 (lung), MC38 (colon) and human fetal foreskin fibroblasts HFFF2 were purchased from European Collection of Cell Cultures (Public Health England) or ATCC; HNSCC 5PT [32] were provided by l. Mackenzie (Queen Mary University of London, UK). HEK-293T cells and IMR90 lung fibroblasts were provided by Jesus Gil (Imperial College, London, UK). SCC25 were grown in Ham's F12:DMEM (1:1 ratio) medium with 10% FBS (Calbiochem) and 292 μg/ml L-Glutamine. 5PT were cultured in keratinocyte growth medium. HEK-293T, H441, MC38, HFFF2, IMR90 and primary fibroblasts were grown in DMEM supplemented with 10% FBS and 292 μg/ml L-Glutamine. Primary fibroblasts were isolated as previously used at early passage (p1-10). C57BL/6 murine normal lung and colon fibroblasts (MLF and MCF respectively) were grown at 3% oxygen. TC-1 were cultured in RPMI supplemented with 10% FBS and 292 μg/ml L-Glutamine. All cell cultures were routinely tested for mycoplasma contamination. All cells were cultured using standard cell culture plates/flasks (Corning). HFFF2 or IMR90 cells were transfected with 25 μM On-Target pool siRNA (Thermo Scientific/Dharmacon) using Oligofectamine reagent (Life Technologies) as described. Stable knockdown was performed using retro/lentiviral mediated transduction of shRNA plasmids, as previously described followed by cell selection using 1 μg/ml puromycin for 5-7 days. NOX4-inducible HEK-293 cells (kindly provided by Vincent Jaquet) were treated with 1 μg/ml doxycycline. Wild type and mutant (C2991L) ATM over-expression was carried out transfecting HFFF2 with Viafect (Promega) according to manufacturer's instructions and selected for 10 days with 4 mg/ml G418. p-Retrosuper-shATM (ATM #1:912) and pCDNA3.1-Flag-mut-ATM (C2991L; pTP1625 clone) were kindly provided by Yosef Shiloh and Tanya Paull respectively. pLKO.1 murine shATM (TRCN0000012643) and pCDNA3.1-Flag-wt-ATM (31985) were purchased from Sigma and Addgene respectively. 2 ng/ml TGF-3 (TGF-β1; R&D Systems; for 3 days) was used to induce myofibroblast differentiation. 10 ng/ml IL-1pR (R&D Systems) for 72 hours was used to induce iCAF differentiation. […] All the inhibitors were resuspended in DMSO. To trigger DDR activation and/or cell stress HFFF2 were either irradiated with 2-100Gy using 350Kv X-Ray Irradiation System (Faxitron), or treated with 100 ng/ml Neocarzinostatin for 2 hours (NCS; Sigma), with 2-10 mM H2O2(Fisher Scientific) or with 5 μg/ml Cisplatin (Sandoz) for 30 minutes.
5×10^3 HFFF2 were plated on permanox chamber slides (Thermo Scientific) and treated as described in the figure legends. Immunostaining was performed as previously. DAPI was used as nuclear counterstain and coverslips were mounted using fluorescent mounting solution (Dako). Images were taken using an Olympus IX81 fluorescence microscope and Xcellence program. DNA Damage foci were quantified from at least 8 non-overlapping FoV with ~300 cells in total per condition. Kruskall-Wallis statistical test was used to indicate the presence of a different distribution per time points in each group of foci. For collagen 1A1 deposition, 5×10^3 HFFF2 or MLF were seeded into chamber slides and treated with TGF-β1±inhibitors for a week (treated day 1 & day 4). Decellularisation was performed using 0.25M NH4OH in 50 mM Tris at 37° C. for 30 minutes and slides fixed with ice-cold 100% methanol at −20° C. followed by a blocking step. The remainderwas performed as previously described. SMA and Collagen 1A1 quantification was performed using Fiji. High resolution imaging of mouse tumours was carried out using an Axioscan.Z1 scanner (Zeiss).

[3] = system: HFFF2; assay: IL-1-induced iCAF gene expression (Q-RT-PCR); format: cell-based, human; settings: KU55933 + 10 ng/ml IL-1p 72 hours
Protocol: (§3) Human NSCLC cell line H441, HNSCC SCC25, murine cancer cell line TC-1 (lung), MC38 (colon) and human fetal foreskin fibroblasts HFFF2 were purchased from European Collection of Cell Cultures (Public Health England) or ATCC; HNSCC 5PT [32] were provided by l. Mackenzie (Queen Mary University of London, UK). HEK-293T cells and IMR90 lung fibroblasts were provided by Jesus Gil (Imperial College, London, UK). SCC25 were grown in Ham's F12:DMEM (1:1 ratio) medium with 10% FBS (Calbiochem) and 292 μg/ml L-Glutamine. 5PT were cultured in keratinocyte growth medium. HEK-293T, H441, MC38, HFFF2, IMR90 and primary fibroblasts were grown in DMEM supplemented with 10% FBS and 292 μg/ml L-Glutamine. Primary fibroblasts were isolated as previously used at early passage (p1-10). C57BL/6 murine normal lung and colon fibroblasts (MLF and MCF respectively) were grown at 3% oxygen. TC-1 were cultured in RPMI supplemented with 10% FBS and 292 μg/ml L-Glutamine. All cell cultures were routinely tested for mycoplasma contamination. All cells were cultured using standard cell culture plates/flasks (Corning). […]
For Quantitative Real-time PCR (Q-RT-PCR), RNA was extracted and retro-transcribed as described previously and Q-RT-PCR was performed as previously. The mRNA expression levels were analyzed using the AACt relative quantitation method. […]

[4] = system: HNSCC and NSCLC CAF; assay: Established myoCAF phenotype of CAF cultured ex vivo; format: cell-based, human
Protocol: as §2
Cells were lysed in ice-cold RIPA buffer [1% NP40, 150 mM NaCl, 25 mM Tris-HCl pH 7.5, 0.1% SDS, 1% Na-Deoxycolate, 1 mM EGTA, 1 mM EDTA, 1 mM Na-orthovanadate, 10 mM Na-fluoride, 2.5 mM Na-pyrophosphate, 1 mM p glycerophosphate+freshly added 1 mM PMSF, 20 mM N-Ethylmaleimide (NEM), 10 ng/ml Microcystin-LR, 0.12 μM Okadaic acid and phosphatase and protease inhibitor cocktails; all from Sigma]. Protein extracts were then centrifuged and supernatants quantified using Dc-Bio-Rad protein assay kit (Bio-Rad laboratories) as previously. For nuclear-cytoplasmic protein extraction, the inventors used NE-PER Reagents according to manufacturer's instructions (Thermofisher). Equal amounts of protein were electrophoresed either in reducing (+Dithiothreitol, DTT) or in non-reducing conditions in 3-8% or 4-12% SDS-PAGE gels and electro blotted as previously.

[5] = system: H441, 5PT, SCC25 cells; assay: Transwell invasion assay towards fibroblast-conditioned media; format: cell-based, human
Protocol: CAF, HFFF2 or shCTR/shATM HFFF2 populations were treated with 13.3 μM KU55933+/−TGF-β1 for 7 days (treated day 1, day 4). Cells were washed twice with PBS and serum-free DMEM added for 72 hours. Fibroblast-conditioned medium (CM) was collected, centrifuged, filtered (0.2 μm), normalized according to cell number and used as a chemoattractant in the lower chamber of Transwell invasion assays as previously. Two-way Anova was used for statistical analysis.

[6] = system: ATM; assay: TGF-β1-dependent ATM activation in fibroblasts (Western blotting); format: cell-based, human
Protocol: as §3, with “(Corning). HFFF2 or IMR90 cells were transfected with 25 μM On-Target pool siRNA (Thermo Scientific/Dharmacon) using Oligofectamine reagent (Life Technologies) as described. Stable knockdown was performed using retro/lentiviral mediated transduction of shRNA plasmids, as previously described followed by cell selection using 1 μg/ml puromycin for 5-7 days. NOX4-inducible HEK-293 cells (kindly provided by Vincent Jaquet) were treated with 1 μg/ml doxycycline.” for “(Corning).”
(§4) Cells were lysed in ice-cold RIPA buffer [1% NP40, 150 mM NaCl, 25 mM Tris-HCl pH 7.5, 0.1% SDS, 1% Na-Deoxycolate, 1 mM EGTA, 1 mM EDTA, 1 mM Na-orthovanadate, 10 mM Na-fluoride, 2.5 mM Na-pyrophosphate, 1 mM p glycerophosphate+freshly added 1 mM PMSF, 20 mM N-Ethylmaleimide (NEM), 10 ng/ml Microcystin-LR, 0.12 μM Okadaic acid and phosphatase and protease inhibitor cocktails; all from Sigma]. Protein extracts were then centrifuged and supernatants quantified using Dc-Bio-Rad protein assay kit (Bio-Rad laboratories) as previously. […]

[7] = system: ATM; assay: ATM activation and dimerization in CAF nuclear extracts (Western blotting); format: cell-based, human; settings: GKT137831 daily for 72 hours
Protocol: as §3, with “(p1-10).” for “(p1-10). C57BL/6 murine normal lung and colon fibroblasts (MLF and MCF respectively) were grown at 3% oxygen. TC-1 were cultured in RPMI supplemented with 10% FBS and 292 μg/ml L-Glutamine. All cell cultures were routinely tested for mycoplasma contamination. All cells were cultured using standard cell culture plates/flasks (Corning).”
as §4

[8] = system: HFFF2; assay: ROS assay (DCFH-DA fluorescence); format: cell-based, human; settings: GKT137831 40 μM, HFFF2 treated 48 hours with TGF-β1
Protocol: as §1

[9] = molecular target: T1, NOX4 (Homo sapiens, UniProt Q9NPH5); settings: cited from earlier work
T1 sequence (Q9NPH5 1-578): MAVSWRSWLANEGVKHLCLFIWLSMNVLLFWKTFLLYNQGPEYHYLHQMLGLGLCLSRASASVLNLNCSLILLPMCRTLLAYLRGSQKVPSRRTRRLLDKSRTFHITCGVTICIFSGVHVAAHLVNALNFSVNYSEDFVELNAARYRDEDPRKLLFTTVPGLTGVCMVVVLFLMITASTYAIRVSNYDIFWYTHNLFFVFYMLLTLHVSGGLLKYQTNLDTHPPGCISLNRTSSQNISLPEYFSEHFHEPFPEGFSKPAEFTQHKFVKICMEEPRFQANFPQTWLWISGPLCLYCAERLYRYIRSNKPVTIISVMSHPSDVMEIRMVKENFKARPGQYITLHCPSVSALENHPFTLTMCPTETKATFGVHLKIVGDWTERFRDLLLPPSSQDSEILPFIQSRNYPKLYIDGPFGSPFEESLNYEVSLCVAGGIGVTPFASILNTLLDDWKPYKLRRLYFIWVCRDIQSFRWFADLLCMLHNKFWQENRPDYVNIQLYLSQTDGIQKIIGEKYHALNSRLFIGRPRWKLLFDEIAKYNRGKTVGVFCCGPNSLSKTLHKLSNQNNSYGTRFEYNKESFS
T1 sequence (P13498 1-195 partner): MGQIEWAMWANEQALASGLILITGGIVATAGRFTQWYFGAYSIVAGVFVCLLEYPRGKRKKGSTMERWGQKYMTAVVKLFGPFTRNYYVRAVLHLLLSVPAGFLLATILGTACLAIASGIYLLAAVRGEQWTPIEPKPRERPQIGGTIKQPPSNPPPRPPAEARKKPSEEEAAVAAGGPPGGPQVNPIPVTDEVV

[10] = monotherapy, dose escalation phase 1; cited from earlier work
[11] = CCT241533 1.5 μM + TGF-β1 72 hours, HFFF2
[12] = CCT241533 1.5 μM + TGF-β1, HFFF2
[13] = GKT137831 40 μM, HFFF2, TGF-β1 24 hours

TGF-β1: cytokine (R&D Systems) used to induce myofibroblast differentiation
% range SA-β-Gal-positive cells [1]: 15.8-23.3%

COc1cc2nc(-c3cc(F)ccc3O)nc(N[C@@H]3CNC[C@H]3C(C)(C)O)c2cc1OC [CCT241533]
TGF-β1-dependent FnEDA expression [2, 11]: suppresses
TGF-β1-dependent SMA expression [2, 11]: suppresses
SMA-positive stress fiber formation [2, 12]: suppresses
collagen deposition [2, 12]: suppresses

O=c1cc(-c2cccc3c2Sc2ccccc2S3)oc(N2CCOCC2)c1 [KU55933]
expression of SMA ([2]; KU55933 13.3 μM + TGF-β1 72 hours, HFFF2 and primary colon, skin, oral fibroblasts): inhibiting
SMA-positive stress fiber formation ([2]; KU55933 13.3 μM + TGF-β1, 3 days, HFFF2): inhibiting
collagen1 deposition ([2]; KU55933 13.3 μM + TGF-β1, 7 days, HFFF2, MLF one week): inhibiting
contraction of collagen gels ([2]; KU55933 13.3 μM + TGF-β1, HFFF2 or normal primary oral fibroblasts): inhibiting
myofibroblast differentiation ([2]; KU55933 13.3 μM co-treated with TGF-β1): suppressed differentiation
TGF-β1 induction of myoCAF genes (COL11A1, ASPN, ELN) ([2]; KU55933 + TGF-β1 72 hours, HFFF2, Q-RT-PCR): suppressed
IL-1p induction of most iCAF genes (CCL2, LIF, IL6, CXCL1) [3]: significantly upregulated
CAF phenotype ([4]; KU55933 for 7 days): reverted CAF to a more quiescent phenotype
expression of myofibroblast markers (SMA, collagen I, fibronectin) ([4]; KU55933 for 7 days): downregulating
contractility ([4]; collagen gel contraction, ATM inhibition by KU55933 or shRNA-knockdown): suppressing
invasion-promoting effects of myofibroblasts generated through TGF-β1 treatment ([5]; 5PT or SCC25 cells towards conditioned media of HFFF2 treated with TGF-β1 +/− KU55933 7 days): suppressed
myoCAF-dependent cancer cell invasion ([5]; H441 or 5PT cells towards conditioned media of NSCLC / HNSCC CAF treated with KU55933 13.3 μM 7 days): inhibiting

CN(C)c1cccc(-c2c3c(=O)n(-c4ccccc4Cl)[nH]c3cc(=O)n2C)c1 [GKT137831]
ATM downstream kinase activity [6, 13]: inhibited
ATM phosphorylation [6, 13]: inhibited
DNA damage monitored by pH2AX protein expression ([6]; GKT137831, HFFF2, TGF-β1 48 hours): decreased
ATM dimerization ([7]; non-reducing conditions): inhibited
ATM activation ([7]; two HNSCC CAF and one NSCLC CAF): inhibited
ROS production [8]: suppressed
myoCAF differentiation [9]: suppresses
myoCAF-mediated immunotherapy resistance [9]: overcomes

CC(C)n1c(=O)n(C)c2cnc3cc(F)c(-c4ccc(OCCCN5CCCCC5)nc4)cc3c21 [AZD1390]
adverse effects [10]: not yet reporting to be associated with adverse effects
